{"source": "patent US20090022757A1", "about": "“Method for treating photoreceptor cell degeneration” (priority 2007, published 2009)", "key": {"[1]": {"test_system": "MNU-induced retinal photoreceptor cell degeneration", "assay": "Electroretinogram of rats with MNU-induced retinal photoreceptor cell degeneration treated with GLS oil and/or DHA", "assay_type": "in vivo, Sprague Dawley rats", "set-up": "a-Wave Amplitude / b-Wave Amplitude: unit not given here", "details": "MNU 40 mg/kg i.p.", "description": "Animals and grouping: One hundred and five 50-day-old Sprague Dawley rats were used in the experiment. Twenty-five rats were selected randomly as the normal control (receiving an excipient via gastric gavage). Eighty rats were used for establishing the photoreceptor cell degeneration model and were treated by intraperitoneal injection with a single dose of MNU at 40 mg/kg. The MNU-injected rats were randomly divided into four experimental groups:\n(1) GLS oil treatment group (receiving GSL oil and an excipient via gastric gavage);\n(2) GLS oil+DHA treatment group (receiving GSL oil, DHA, and an excipient via gastric gavage);\n(3) DHA control group (receiving DHA and an excipient via gastric gavage;\n(4) Model control group (receiving an excipient via gastric gavage).\nThe excipient used in this experiment is hydroxypropyl methyl cellulose. The treatment started three days before the administration of MNU (day-3). Each animal in Groups 1-3 received a daily gastric feeding of GSL oil only, GSL oil and DHA (2 mg/kg), or DHA (2 mg/kg) only, in 1 ml 0.5% hydroxypropyl methyl cellulose. Animals in Group 4 received 1 ml 0.5% hydroxypropyl methyl cellulose.\nElectroretinogram examination: The pupils of rats were dilated as described in Example 1. The electroretinogram examinations were conducted under the following conditions:\nA Neuropack II electrophysiological analyzer was employed to measure the visual electrophysiology."}, "[2]": {"test_system": "MNU-induced retinal photoreceptor cell degeneration", "assay": "Pathological examination of MNU-induced retinal photoreceptor cell damage in rats treated with GLS oil and/or DHA", "details": "MNU 40 mg/kg i.p., damage score"}, "[3]": {"details": "daily gastric gavage from day -3, day 1"}, "[4]": {"details": "daily gastric gavage from day -3, day 3"}, "[5]": {"details": "daily gastric gavage from day -3, day 5"}, "[6]": {"details": "daily gastric gavage from day -3, day 7"}, "[7]": {"details": "daily gastric gavage from day -3, day 10"}}}
{"smiles": "CC/C=C\\C/C=C\\C/C=C\\C/C=C\\C/C=C\\C/C=C\\CCC(=O)O", "note": "[DHA, Docosahexaenoic acid]", "values": [{"measurement": "a-Wave Amplitude", "setting": "[1]; [3]", "value": "18.43 ± 17.94"}, {"measurement": "a-Wave Latent Period", "setting": "[1]; [3]", "value": "10.35 ± 9.02"}, {"measurement": "b-Wave Amplitude", "setting": "[1]; [3]", "value": "56.90 ± 61.16"}, {"measurement": "b-Wave Latent Period", "setting": "[1]; [3]", "value": "43.92 ± 38.08"}, {"measurement": "a-Wave Amplitude", "setting": "[1]; [4]", "value": "14.13 ± 15.71"}, {"measurement": "a-Wave Latent Period", "setting": "[1]; [4]", "value": "8.64 ± 9.91"}, {"measurement": "b-Wave Amplitude", "setting": "[1]; [4]", "value": "59.43 ± 65.22"}, {"measurement": "b-Wave Latent Period", "setting": "[1]; [4]", "value": "35.10 ± 37.34"}, {"measurement": "a-Wave Amplitude", "setting": "[1]; [5]", "value": "10.27 ± 11.15"}, {"measurement": "a-Wave Latent Period", "setting": "[1]; [5]", "value": "8.30 ± 8.81"}, {"measurement": "b-Wave Amplitude", "setting": "[1]; [5]", "value": "47.85 ± 52.05"}, {"measurement": "b-Wave Latent Period", "setting": "[1]; [5]", "value": "34.92 ± 36.97"}, {"measurement": "a-Wave Amplitude", "setting": "[1]; [6]", "value": "16.61 ± 18.95"}, {"measurement": "a-Wave Latent Period", "setting": "[1]; [6]", "value": "9.01 ± 9.56"}, {"measurement": "b-Wave Amplitude", "setting": "[1]; [6]", "value": "53.93 ± 58.06"}, {"measurement": "b-Wave Latent Period", "setting": "[1]; [6]", "value": "36.24 ± 38.45"}, {"measurement": "a-Wave Amplitude", "setting": "[1]; [7]", "value": "19.70 ± 17.97"}, {"measurement": "a-Wave Latent Period", "setting": "[1]; [7]", "value": "10.42 ± 9.10"}, {"measurement": "b-Wave Amplitude", "setting": "[1]; [7]", "value": "64.71 ± 57.60"}, {"measurement": "b-Wave Latent Period", "setting": "[1]; [7]", "value": "43.23 ± 37.88"}, {"measurement": "Number of Eyes with extinguished electroretinogram", "setting": "[1]; n = 10, day 3", "value": 5}, {"measurement": "Number of Eyes with extinguished electroretinogram", "setting": "[1]; n = 10, day 5", "value": 5}, {"measurement": "Number of Eyes with extinguished electroretinogram", "setting": "[1]; n = 10, day 7", "value": 5}, {"measurement": "Number of Eyes with extinguished electroretinogram", "setting": "[1]; n = 10, day 10", "value": 4}, {"measurement": "Number of Eyes with extinguished electroretinogram", "setting": "[1]; n = 10, day 11", "value": 4}, {"measurement": "The Damage Degree of the Retinal Photoreceptor Cell Pathology", "setting": "[2]; day 1", "value": "1.40 ± 0.52"}, {"measurement": "The Damage Degree of the Retinal Photoreceptor Cell Pathology", "setting": "[2]; day 3", "value": "2.2 ± 1.32"}, {"measurement": "The Damage Degree of the Retinal Photoreceptor Cell Pathology", "setting": "[2]; day 5", "value": "2.9 ± 2.85"}, {"measurement": "The Damage Degree of the Retinal Photoreceptor Cell Pathology", "setting": "[2]; day 7", "value": "2.80 ± 2.97"}, {"measurement": "The Damage Degree of the Retinal Photoreceptor Cell Pathology", "setting": "[2]; day 10", "value": "2.60 ± 2.95"}]}
